Assays:
[1] = system: p65 nuclear translocation; assay: HCS counter-screen: TNFα-induced p65 nuclear translocation in U2-OS cells; type: cell-based
Description: (§1) Fig.1: Identification of inhibitors specific for DNA damage-induced NF-κB activity. (A) Flowchart representing the high-throughput chemical library screening. A screen/counter-screen strategy was used by stimulating NF-κB in U2-OS cells with etoposide (50 µM for 90 min) and hits were counter-screened with TNFα (10 ng/ml for 20 min). Cells were pre-treated with compounds (10 µM) for 1 hour before stimulation, fixed, and percent p65 nuclear translocation measured by fluorescence microscopy. IC50 values were used for final selection. (B) Comparison of mean p65 nuclear translocation following either etoposide or TNFa stimulation after treatment with each counter-screened hit compound. Values were normalized to etoposide or TNFα positive controls. Specific inhibitors (red) of DNA damage-induced NF-κB signaling were defined by setting cut-off criteria (black line). […] (E) Western blot analysis (top) and quantification (bottom) of NF-κB subunit p65 phosphorylation (S536) following 1-hour pre-treatment with DMSO, MW01 (10 µM), or MW05 (10 µM), in unstimulated, after 90 min irradiation (IR, 20 Gy), or after 20 min TNFα (10 ng/mL) conditions in U2- OS cells. […]
(§2) To identify inhibitors that selectively prevent DNA damage-induced NF-κB activation, we established a high-throughput screening platform quantifying p65 nuclear translocation, an essential step in NF-κB activation (Hayden and Ghosh, 2008). […]

[2] = system: p65 nuclear translocation; assay: HCS screening: etoposide-induced p65 nuclear translocation in U2-OS cells; type: cell-based; conditions: Homo sapiens, U2OS, read-out: etoposide-stimulated IC50 of p65 nuclear translocation
Description: as §1, §2

| SMILES | TNFα stimulated IC50 of p65 nuclear translocation [1] | IC50 [2] [nM] |
| --- | --- | --- |
| COc1ccc2c(c1OC)c(=O)n1c3ccc(O)cc3c3ccnc2c31 [MW01, 5-Hydroxy-10,11-dimethoxy-9H-benzo[c]indolo[3,2,1-ij][1,5]naphthyridin-9-one] | out of range | 460 |
| COc1ccc2cc3c(N)nn(C(=O)c4cccc(N(C)C)c4)c3nc2c1 [MW05, (3-Amino-7-methoxypyrazolo[3,4-b]quinolin-1-yl)-[3-(dimethylamino)phenyl]methanone] | out of range | 690 |
